Activity calls are given as the source filed them. The calls are words filed in the database; no cut-off is given here.
Assays:
IGROV-1 = assay: Antiproliferative activity against human IGROV1 cells after 48 hrs; assay type: functional; details: IGROV-1, 48 h
UO-31 = assay: Antiproliferative activity against human UO31 cells after 48 hrs; assay type: functional
NCI-H460 = assay: Antiproliferative activity against human NCI-H460 cells after 48 hrs; assay type: functional; details: NCI-H460, 48 h; for CC50: read-out: LC50 (the source's name)
NCI = assay: Growth inhibition of human NCI DTP 60 cells; assay type: functional
786-0 = assay: Antiproliferative activity against human 786-0 cells after 48 hrs; assay type: functional; details: for CC50: read-out: LC50 (the source's name)
CAKI-1 = assay: Antiproliferative activity against human CAKI1 cells after 48 hrs; assay type: functional; details: CAKI-1, 48 h
NCI-H522 = assay: Antiproliferative activity against human NCI-H522 cells after 48 hrs; assay type: functional; details: NCI-H522, 48 h
Plasmodium falciparum [1] = assay: Antimalarial activity against Plasmodium falciparum D6; assay type: functional, organism-based
[2] = Antiproliferative activity against human […] cells after 48 hrs; assay type: functional
Plasmodium falciparum [3] = assay: Antimalarial activity against Plasmodium falciparum W2; assay type: functional, organism-based
MOLT-4 = assay: Antiproliferative activity against human MOLT4 cells after 48 hrs; assay type: functional; details: MOLT-4, 48 h
Plasmodium falciparum [4] = assay: Antimalarial activity against Plasmodium falciparum TM91C235; assay type: functional, organism-based
NCI-H23 = assay: Antiproliferative activity against human NCI-H23 cells after 48 hrs; assay type: functional; details: NCI-H23, 48 h
SF-295 = assay: Antiproliferative activity against human SF295 cells after 48 hrs; assay type: functional; details: SF-295, 48 h
DU-145 = assay: Antiproliferative activity against human DU145 cells after 48 hrs; assay type: functional; details: DU-145, 48 h
MDA-MB-435 = assay: Antiproliferative activity against human MDA-MB-435 cells after 48 hrs; assay type: functional; details: for CC50: read-out: LC50 (the source's name)
LOX IMVI = assay: Antiproliferative activity against human LOX IMVI cells after 48 hrs; assay type: functional
SN12C = assay: Antiproliferative activity against human SN12C cells after 48 hrs; assay type: functional
HL-60 = assay: Antiproliferative activity against human HL60 cells after 48 hrs; assay type: functional; details: for CC50: read-out: LC50 (the source's name)
MDA-MB-231 = assay: Antiproliferative activity against human MDA-MB-231 cells after 48 hrs; assay type: functional; details: MDA-MB-231, 48 h
SF-539 = assay: Antiproliferative activity against human SF539 cells after 48 hrs; assay type: functional; details: SF-539, 48 h
A498 = assay: Antiproliferative activity against human A498 cells after 48 hrs; assay type: functional; details: A498, 48 h
Plasmodium berghei [5] = assay: Antimalarial activity as survivors after 31 days in Plasmodium berghei KBG173 infected CD1 mice (Mus musculus) at 40 mg/kg/day; assay type: functional, organism-based; details: KBG 173
PC-3 = assay: Antiproliferative activity against human PC3 cells after 48 hrs; assay type: functional; details: PC-3, 48 h
CCRF-CEM = assay: Antiproliferative activity against human CCRF-CEM cells after 48 hrs; assay type: functional
HOP-92 = assay: Antiproliferative activity against human HOP92 cells after 48 hrs; assay type: functional
A549 = assay: Antiproliferative activity against human A549 cells after 48 hrs; assay type: functional; details: A549, 48 h
Plasmodium berghei [6] = assay: Antimalarial activity as survivors after 31 days in Plasmodium berghei KBG173 infected CD1 mice (Mus musculus) at 20 mg/kg/day; assay type: functional, organism-based; details: KBG 173
Mus musculus [7] = assay: Survival of Plasmodium berghei KBG 173 infected CD1 mice (Mus musculus) at 80 mg/kg/day; assay type: ADME, organism-based; details: in vivo
Liver microsomes = assay: Metabolic stability in human liver microsomes; assay type: ADME, Microsome; details: microsomes
ACHN = assay: Antiproliferative activity against human ACHN cells after 48 hrs; assay type: functional
Mus musculus [8] = assay: Survival of Plasmodium berghei KBG 173 infected CD1 mice (Mus musculus) at 320 mg/kg/day; assay type: ADME, organism-based; details: in vivo
[9] = Metabolic stability in mouse liver microsomes; assay type: ADME, Microsome; details: microsomes
Plasmodium berghei [10] = assay: Antimalarial activity as survivors after 31 days in Plasmodium berghei KBG173 infected CD1 mice (Mus musculus) at 80 mg/kg/day; assay type: functional, organism-based; details: KBG 173
[11] = read-out: LC50 (the source's name)
[12] = Plasmodium falciparum, TM91C235

## CC(=O)O[C@H]1C[C@H]2[C@@H]([C@H](OC(C)=O)C[C@@H]3CC4(CC[C@@]32C)OOC2(CCCCC2)OO4)[C@@H]2CC[C@H]([C@H](C)CCC(N)=O)[C@@]12C
IGROV-1
  GI50: 32 nM
  LC50 (concentration killing 50% of cells): 430 nM
  TGI: 120 nM
UO-31; Homo sapiens, UO-31, 48 h
  GI50: < 10 nM
  LC50: 40 nM
  TGI: 14 nM
NCI-H460
  GI50: 550 nM
  TGI: 2070 nM
  CC50: 5280 nM
NCI; Homo sapiens, NCI
  GI50: < 10 nM
786-0; Homo sapiens, 786-0, 48 h
  GI50: 783 nM
  TGI: 2090 nM
  CC50: 4570 nM
CAKI-1
  GI50: 200 nM
  TGI: 1120 nM
CAKI-1; [11]
  CC50: 3590 nM
NCI-H522
  GI50: 230 nM
  TGI: 770 nM
NCI-H522; [11]
  CC50: 3020 nM

## CCCNC(=O)CC[C@@H](C)[C@H]1CC[C@H]2[C@@H]3CC[C@@H]4CC5(CC[C@]4(C)[C@H]3C[C@H](OC(C)=O)[C@]12C)OOC1(CCCCC1)OO5
Plasmodium falciparum [1]; Plasmodium falciparum, D6
  IC50: 74.3 nM
  IC90: 115 nM
[2]
  GI50: 110 nM
  TGI: 650 nM
[2]; [11]
  CC50: 6820 nM
NCI; Homo sapiens, NCI
  GI50: 110 nM
Plasmodium falciparum [3]; Plasmodium falciparum, W2
  IC50: 40.8 nM
  IC90: 111 nM

## CC(=O)O[C@H]1C[C@H]2[C@@H](CC[C@@H]3CC4(CC[C@@]32C)OOC2(CCCCC2)OO4)[C@@H]2CC[C@H]([C@H](C)CCC(=O)NCCN(C)C)[C@@]12C
Plasmodium falciparum [1]; Plasmodium falciparum, D6
  IC50: 221 nM
MOLT-4
  GI50: < 10 nM
  TGI: > 100000 nM
Plasmodium falciparum [4]; [12]
  IC50: 221 nM
NCI-H460
  GI50: 536 nM
  TGI: 1900 nM
  CC50: 4700 nM
NCI; Homo sapiens, NCI
  GI50: < 10 nM
Plasmodium falciparum [3]; Plasmodium falciparum, W2
  IC50: 105 nM
  IC90: 276 nM
786-0; Homo sapiens, 786-0, 48 h
  GI50: 159 nM
  TGI: 298 nM
  CC50: 559 nM

## CC(=O)O[C@H]1C[C@H]2[C@@H](CC[C@@H]3CC4(CC[C@@]32C)OOC2(CCC(C)CC2)OO4)[C@@H]2CC[C@H]([C@H](C)CCC(N)=O)[C@@]12C (stereo in doubt; 12)
NCI-H23
  GI50: 660 nM
  LC50 (concentration killing 50% of cells): 3390 nM
  TGI: 1710 nM
Plasmodium falciparum [1]; Plasmodium falciparum, D6
  IC50: 13.6 nM
  IC90: 19 nM
SF-295
  GI50: 524 nM
  TGI: 1690 nM
SF-295; [11]
  CC50: 3460 nM
Plasmodium falciparum [4]; [12]
  IC50: 15.7 nM
  IC90: 30.8 nM
DU-145
  GI50: 699 nM
  LC50 (concentration killing 50% of cells): 3340 nM
  TGI: 1730 nM
MDA-MB-435; Homo sapiens, MDA-MB-435, 48 h
  GI50: 951 nM
  TGI: 1940 nM
  CC50: 3960 nM
LOX IMVI; Homo sapiens, LOX IMVI, 48 h
  GI50: 111 nM
  TGI: 259 nM
NCI; Homo sapiens, NCI
  GI50: 110 nM
Plasmodium falciparum [3]
  IC90: 29.7 nM
Plasmodium falciparum [3]; Plasmodium falciparum, W2
  IC50: 18.8 nM
SN12C
  GI50: 833 nM
  LC50 (concentration killing 50% of cells): 3000 nM
  TGI: 1580 nM
HL-60; Homo sapiens, HL-60, 48 h
  GI50: 769 nM
  TGI: 1840 nM
  CC50: 4410 nM
MDA-MB-231
  GI50: 821 nM
  TGI: 1760 nM
MDA-MB-231; [11]
  CC50: 3770 nM
SF-539
  TGI: 1840 nM
SF-539; [11]
  CC50: 3610 nM
A498
  GI50: 923 nM
  TGI: 1920 nM
A498; [11]
  CC50: 4000 nM

## CC(=O)O[C@H]1C[C@H]2[C@@H](CC[C@@H]3CC4(CC[C@@]32C)OOC2(CCC(C)CC2)OO4)[C@@H]2CC[C@H]([C@H](C)CCC(=O)NCCN(C)C)[C@@]12C (stereo in doubt; 16)
Plasmodium berghei [5]
  Activity: inactive

## CC1CCC2(CC1)OOC1(CC[C@@]3(C)[C@H](CC[C@@H]4[C@@H]3C[C@H](O)[C@]3(C)[C@@H]([C@H](C)CCC(=O)NCCN(C)C)CC[C@@H]43)C1)OO2 (stereo in doubt; 17a)
PC-3
  GI50: 367 nM
  TGI: 1620 nM
PC-3; [11]
  CC50: 4450 nM
IGROV-1
  GI50: 160 nM
  LC50 (concentration killing 50% of cells): 712 nM
  TGI: 338 nM
UO-31
  GI50: 165 nM
  LC50: 613 nM
  TGI: 318 nM
DU-145
  GI50: 641 nM
  LC50 (concentration killing 50% of cells): 4490 nM
  TGI: 1910 nM
LOX IMVI
  GI50: 180 nM
  LC50 (concentration killing 50% of cells): 689 nM
  TGI: 352 nM
NCI
  GI50: 130 nM
CCRF-CEM
  GI50: 186 nM
  LC50 (concentration killing 50% of cells): 792 nM
  TGI: 384 nM
786-0
  GI50: 335 nM
  TGI: 1050 nM
  CC50: 3650 nM
HL-60
  GI50: 264 nM
  TGI: 477 nM
  CC50: 863 nM
HOP-92
  GI50: 171 nM
  LC50 (concentration killing 50% of cells): 794 nM
  TGI: 368 nM

## CC(=O)O[C@H]1C[C@H]2[C@@H]([C@H](OC(C)=O)C[C@@H]3CC4(CC[C@@]32C)OOC2(CCC(C)CC2)OO4)[C@@H]2CC[C@H]([C@H](C)CCC(=O)Nc3ccccc3)[C@@]12C (stereo in doubt; 21)
Plasmodium falciparum [1]
  IC50: 19.8 nM
  IC90: 29.2 nM
Plasmodium falciparum [4]
  IC50: 27.2 nM
  IC90: 69.7 nM
UO-31; Homo sapiens, UO-31, 48 h
  GI50: 222 nM
  LC50: > 10000 nM
  TGI: 487 nM
LOX IMVI
  GI50: 181 nM
  LC50 (concentration killing 50% of cells): 758 nM
  TGI: 370 nM
NCI; Homo sapiens, NCI
  GI50: 180 nM
Plasmodium falciparum [3]
  IC50: 23.1 nM
  IC90: 54.6 nM
HOP-92; Homo sapiens, HOP-92, 48 h
  GI50: 266 nM
  LC50 (concentration killing 50% of cells): 8840 nM
  TGI: 766 nM
A549
  GI50: 255 nM
  TGI: 664 nM

## CC(=O)O[C@H]1C[C@H]2[C@@H]([C@H](OC(C)=O)C[C@@H]3CC4(CC[C@@]32C)OOC2(CCC(C)CC2)OO4)[C@@H]2CC[C@H]([C@H](C)CCC(=O)NCCN(C)C)[C@@]12C (stereo in doubt; 22)
Plasmodium berghei [6]
  Activity: inactive

## CC(=O)O[C@H]1C[C@H]2[C@@H]([C@H](OC(C)=O)C[C@@H]3CC4(CC[C@@]32C)OOC2(CCC(C)CC2)OO4)[C@@H]2CC[C@H]([C@H](C)CCC(=O)NCCN(C)C)[C@@]12C (stereo in doubt; 23) [listing 1 of 2 here]
Mus musculus [7]
  Survival: 11 days
NCI-H23
  GI50: 318 nM
  LC50 (concentration killing 50% of cells): 3110 nM
  TGI: 1690 nM
Plasmodium falciparum [1]
  IC50: 43.8 nM
  IC90: 71.2 nM
Liver microsomes
  t1/2: 2 h
ACHN
  GI50: 592 nM
  LC50 (concentration killing 50% of cells): 2640 nM
  TGI: 1250 nM
Plasmodium falciparum [4]
  IC50: 39.2 nM
  IC90: 102 nM
MDA-MB-435
  GI50: 650 nM
  TGI: 1340 nM
  CC50: 2780 nM
LOX IMVI
  GI50: 57 nM
LOX IMVI; Homo sapiens, LOX IMVI, 48 h
  LC50 (concentration killing 50% of cells): 295 nM
  TGI: 130 nM
NCI
  GI50: 57 nM
CCRF-CEM
  GI50: 67 nM
  TGI: 151 nM
CCRF-CEM; Homo sapiens, CCRF-CEM, 48 h
  LC50 (concentration killing 50% of cells): 340 nM
Plasmodium falciparum [3]
  IC50: 43.5 nM
  IC90: 94 nM
SN12C
  GI50: 606 nM
  LC50 (concentration killing 50% of cells): 2720 nM
  TGI: 1280 nM
Mus musculus [8]
  Survival: 17 days
HOP-92; Homo sapiens, HOP-92, 48 h
  GI50: 70 nM
  LC50 (concentration killing 50% of cells): 2860 nM
  TGI: 695 nM
[9]
  t1/2: > 2 h

## CC(=O)O[C@H]1C[C@H]2[C@@H]([C@H](OC(C)=O)C[C@@H]3CC4(CC[C@@]32C)OOC2(CCC(C)CC2)OO4)[C@@H]2CC[C@H]([C@H](C)CCC(=O)NCCN(C)C)[C@@]12C (stereo in doubt; 23) [listing 2 of 2 here]
Plasmodium berghei [10]
  Activity: inactive
